Reference: US6884882B1, “2′-deoxyuridine derivatives and hydrogels formed therewith” (Postech Foundation, priority 2004, dated 2005)
Entries after “also recorded” stand apart in the source; their conditions may differ.

Legend:
Assay type in all cases: physicochemical
[1] = Gelation test (stable-to-inversion-of-the-container method) in water; settings: for State: 2 wt % in water, dissolved by sonication and heating, cooled at room temperature for 20 minutes, vessel inverted; for Minimum gel concentration: minimum concentration at which a gel was formed in water; for gelation ability: in water, judged from Table 1
Protocol: In order to determine the extent of gelation of the 2′-deoxyuridine derivative of the present invention, the “stable-to-inversion-of-the-container” method was performed (see F. M. Menger and K. L Caran., J. Am. Chem. Soc., 122, 11679, 2000).
Each of 2′-deoxyuridine derivatives prepared in Example 1 was mixed with water in an amount corresponding to a concentration of 2 wt %, completely dissolved by sonication and heating, and then cooled at room temperature for 20 minutes to induce the formation of a gel. Then, the vessel containing the gel was inverted to see whether or not the content poured out.
Further, the minimum concentration at which a gel was formed (hereinafter, minimum gel concentration) was measured for each of the 2′-deoxyuridine derivatives.

[2] = Observation of inner structures of gels by Scanning Electron Microscopy (SEM); settings: for gel structure in SEM image: gel prepared by the method of Example 2, lyophilized, platinum coated
Protocol: The aggregation mode of the gel formed with the 2′-deoxyurindine derivative was observed by Scanning Electron Microscopy (SEM). Gels were prepared using the 2′-deoxyuridine derivatives prepared in 1-4), 1-7), 1-9) and 1-10) by the method of Example 2. Each of the gels was heated to obtain a sol, and a small amount of the sol was converted to a gel cake, which was lyophilized under a vacuum at the liquid nitrogen temperature to remove the solvent, coated with platinum, and examined by SEM.

[3] = Analysis of thermal stability of hydrogel by differential scanning calorimetry; settings: DSC, 30 to 220° C., FIG. 3
Protocol: In order to examine the thermal stability of the 2′-deoxyuridine derivative of the present invention, 1 to 4 mg of the derivative prepared in 1-9) was shaped in the form of a pellet, and differential scanning calorimetry was performed therewith at a temperature ranging from 30 to 220° C.

State [1] | Minimum gel concentration [1] | gel structure in SEM image [2] | gelation ability [1] | melting point peak of the gel phase [3] | melting point peak of the solid phase [3] | Compound | gel structure in SEM image on lowering the concentration ([2]; concentration lowered from 2 to 0.25 wt %, FIG. 2)
White opaque gel | 0.3 wt % | lamellar structure |  |  |  | O=c1[nH]c(=O)n([C@H]2C[C@H](O)[C@@H](CO)O2)cc1-c1cn(Cc2ccccc2)nn1 [1-4), 2′-deoxy-5-[1-(phenylmethyl)-1H-1,2,3-triazol-4-yl]-uridine] | 
Unstable white opaque gel | 3 wt % |  |  |  |  | Cc1ccccc1Cn1cc(-c2cn([C@H]3C[C@H](O)[C@@H](CO)O3)c(=O)[nH]c2=O)nn1 [1-5), 2′-deoxy-5-[1-((o-methylphenyl)methyl)-1H-1,2,3-triazol-4-yl]-uridine] | 
Unstable white opaque gel | 1 wt % |  |  |  |  | Cc1cccc(Cn2cc(-c3cn([C@H]4C[C@H](O)[C@@H](CO)O4)c(=O)[nH]c3=O)nn2)c1 [1-6), 2′-deoxy-5-[1-((m-methylphenyl)methyl)-1H-1,2,3-triazol-4-yl]-uridine] | 
White opaque gel | 0.6 wt % | lamellar structure | good gelation ability |  |  | Cc1ccc(Cn2cc(-c3cn([C@H]4C[C@H](O)[C@@H](CO)O4)c(=O)[nH]c3=O)nn2)cc1 [1-7), 2′-deoxy-5-[1-((p-methylphenyl)methyl)-1H-1,2,3-triazol-4-yl]-uridine] | 
Unstable white opaque gel | 2 wt % |  |  |  |  | CCc1ccccc1Cn1cc(-c2cn([C@H]3C[C@H](O)[C@@H](CO)O3)c(=O)[nH]c2=O)nn1 [1-8), 2′-deoxy-5-[1-((o-ethylphenyl)methyl)-1H-1,2,3-triazol-4-yl]-uridine] | 
White opaque gel | 0.8 wt % | lamellar structure | good gelation ability |  |  | CCCCc1ccc(Cn2cc(-c3cn([C@H]4C[C@H](O)[C@@H](CO)O4)c(=O)[nH]c3=O)nn2)cc1 [1-10), 2′-deoxy-5-[1-((p-butylphenyl)methyl)-1H-1,2,3-triazol-4-yl]-uridine] | 

Compound | State [1] | Minimum gel concentration [1] | gel structure in SEM image [2] | gelation ability [1] | melting point peak of the gel phase [3] | melting point peak of the solid phase [3] | gel structure in SEM image on lowering the concentration ([2]; concentration lowered from 2 to 0.25 wt %, FIG. 2)
CCc1ccc(Cn2cc(-c3cn([C@H]4C[C@H](O)[C@@H](CO)O4)c(=O)[nH]c3=O)nn2)cc1 [1-9), 2′-deoxy-5-[1-((p-ethylphenyl)methyl)-1H-1,2,3-triazol-4-yl]-uridine] | White opaque gel | 0.2 wt % | fiber structure | good gelation ability; also recorded: best gelation ability | 201 °C | 200 °C | looser fiber structure having a larger void volume
